Assay results as given in ChEMBL document CHEMBL4765468, “Development of Novel Tetrahydroquinoline Inhibitors of NLRP3 Inflammasome for Potential Treatment of DSS-Induced Mouse Colitis” (J Med Chem, 2021).
pIC50: −log10 of the molar value.

Test system: THP-1
Assay: Cytotoxicity in human THP-1 cells assessed as reduction in cell viability incubated for 72 hrs by MTT assay
Type: cell-based
Settings: THP-1, 72 h

Structure (SMILES) | pIC50
CC(C)(O)c1coc(S(=O)(=O)NC(=O)Nc2c3c(cc4c2CCC4)CCC3)c1 | 4.01
CS(=O)(=O)N1CCCc2ccc(N(S(C)(=O)=O)S(C)(=O)=O)cc21 | < 4.00
CS(=O)(=O)N1CCCc2ccc(N(S(=O)(=O)c3ccc(F)cc3)S(=O)(=O)c3ccc(F)cc3)cc21 | < 4.00
CS(=O)(=O)N1CCCc2ccc(N(S(=O)(=O)c3cccc(F)c3)S(=O)(=O)c3cccc(F)c3)cc21 | 4.14
CS(=O)(=O)N1CCCc2ccc(N(S(=O)(=O)c3ccc(C(F)(F)F)cc3)S(=O)(=O)c3ccc(C(F)(F)F)cc3)cc21 | 5.08
CCCS(=O)(=O)N(c1ccc2c(c1)N(S(C)(=O)=O)CCC2)S(=O)(=O)CCC | 4.01
CS(=O)(=O)N1CCCc2ccc(N(S(=O)(=O)CCN3C(=O)c4ccccc4C3=O)S(=O)(=O)CCN3C(=O)c4ccccc4C3=O)cc21 | < 4.00
CS(=O)(=O)N1CCCc2ccc(N(S(=O)(=O)c3ccccc3F)S(=O)(=O)c3ccccc3F)cc21 | < 4.00
CS(=O)(=O)N1CCCc2ccc(N(S(=O)(=O)c3cccc4ccccc34)S(=O)(=O)c3cccc4ccccc34)cc21 | < 4.00
CS(=O)(=O)N1CCCc2ccc(N(S(=O)(=O)c3ccc(Br)cc3)S(=O)(=O)c3ccc(Br)cc3)cc21 | 4.18
COC(=O)c1ccc(S(=O)(=O)N(c2ccc3c(c2)N(S(C)(=O)=O)CCC3)S(=O)(=O)c2ccc(C(=O)OC)cc2)cc1 | < 4.00
Cc1ccc(S(=O)(=O)N(c2ccc3c(c2)N(S(C)(=O)=O)CCC3)S(=O)(=O)c2ccc(C)cc2)cc1 | 4.11
CCS(=O)(=O)N(c1ccc2c(c1)N(S(C)(=O)=O)CCC2)S(=O)(=O)CC | < 4.00
CS(=O)(=O)N1CCCc2ccc(N(S(=O)(=O)c3ccc(C#N)cc3)S(=O)(=O)c3ccc(C#N)cc3)cc21 | 4.44
CS(=O)(=O)N1CCCc2ccc(N(S(=O)(=O)c3cc(C(F)(F)F)cc(C(F)(F)F)c3)S(=O)(=O)c3cc(C(F)(F)F)cc(C(F)(F)F)c3)cc21 | 4.46
CS(=O)(=O)N1CCCc2ccc(N(S(=O)(=O)Cc3ccccc3)S(=O)(=O)Cc3ccccc3)cc21 | < 4.00
CC(=O)Nc1ccc(S(=O)(=O)N(c2ccc3c(c2)N(S(C)(=O)=O)CCC3)S(=O)(=O)c2ccc(NC(C)=O)cc2)cc1 | < 4.00
COc1ccc(S(=O)(=O)N(c2ccc3c(c2)N(S(C)(=O)=O)CCC3)S(=O)(=O)c2ccc(OC)cc2)cc1 | 4.04
CS(=O)(=O)N1CCCc2ccc(N(S(=O)(=O)c3ccc4ccccc4c3)S(=O)(=O)c3ccc4ccccc4c3)cc21 | 4.01
CS(=O)(=O)N1CCCc2ccc(N(S(=O)(=O)c3ccc(-c4ccccc4)cc3)S(=O)(=O)c3ccc(-c4ccccc4)cc3)cc21 | < 4.00
CS(=O)(=O)N1CCCc2ccc(N(S(=O)(=O)c3ccccc3)S(=O)(=O)c3ccccc3)cc21 | < 4.00
CS(=O)(=O)N1CCCc2ccc(N(S(=O)(=O)c3ccc(Cl)cc3)S(=O)(=O)c3ccc(Cl)cc3)cc21 | < 4.00
CS(=O)(=O)N1CCCc2ccc(N(S(=O)(=O)c3ccccc3[N+](=O)[O-])S(=O)(=O)c3ccccc3[N+](=O)[O-])cc21 | < 4.00
CS(=O)(=O)N1CCCc2ccc(N(S(=O)(=O)c3cccnc3)S(=O)(=O)c3cccnc3)cc21 | 4.15
CS(=O)(=O)N1CCCc2ccc(N(S(=O)(=O)c3cccs3)S(=O)(=O)c3cccs3)cc21 | < 4.00
CCCCS(=O)(=O)N(c1ccc2c(c1)N(S(C)(=O)=O)CCC2)S(=O)(=O)CCCC | 4.02
CS(=O)(=O)N1CCCc2ccc(N(S(=O)(=O)c3ccc([N+](=O)[O-])cc3)S(=O)(=O)c3ccc([N+](=O)[O-])cc3)cc21 | 4.19

Biological target: NACHT, LRR and PYD domains-containing protein 3 (Homo sapiens, UniProt Q96P20)
Sequence (Q96P20 whole entry, the tested form may be a part): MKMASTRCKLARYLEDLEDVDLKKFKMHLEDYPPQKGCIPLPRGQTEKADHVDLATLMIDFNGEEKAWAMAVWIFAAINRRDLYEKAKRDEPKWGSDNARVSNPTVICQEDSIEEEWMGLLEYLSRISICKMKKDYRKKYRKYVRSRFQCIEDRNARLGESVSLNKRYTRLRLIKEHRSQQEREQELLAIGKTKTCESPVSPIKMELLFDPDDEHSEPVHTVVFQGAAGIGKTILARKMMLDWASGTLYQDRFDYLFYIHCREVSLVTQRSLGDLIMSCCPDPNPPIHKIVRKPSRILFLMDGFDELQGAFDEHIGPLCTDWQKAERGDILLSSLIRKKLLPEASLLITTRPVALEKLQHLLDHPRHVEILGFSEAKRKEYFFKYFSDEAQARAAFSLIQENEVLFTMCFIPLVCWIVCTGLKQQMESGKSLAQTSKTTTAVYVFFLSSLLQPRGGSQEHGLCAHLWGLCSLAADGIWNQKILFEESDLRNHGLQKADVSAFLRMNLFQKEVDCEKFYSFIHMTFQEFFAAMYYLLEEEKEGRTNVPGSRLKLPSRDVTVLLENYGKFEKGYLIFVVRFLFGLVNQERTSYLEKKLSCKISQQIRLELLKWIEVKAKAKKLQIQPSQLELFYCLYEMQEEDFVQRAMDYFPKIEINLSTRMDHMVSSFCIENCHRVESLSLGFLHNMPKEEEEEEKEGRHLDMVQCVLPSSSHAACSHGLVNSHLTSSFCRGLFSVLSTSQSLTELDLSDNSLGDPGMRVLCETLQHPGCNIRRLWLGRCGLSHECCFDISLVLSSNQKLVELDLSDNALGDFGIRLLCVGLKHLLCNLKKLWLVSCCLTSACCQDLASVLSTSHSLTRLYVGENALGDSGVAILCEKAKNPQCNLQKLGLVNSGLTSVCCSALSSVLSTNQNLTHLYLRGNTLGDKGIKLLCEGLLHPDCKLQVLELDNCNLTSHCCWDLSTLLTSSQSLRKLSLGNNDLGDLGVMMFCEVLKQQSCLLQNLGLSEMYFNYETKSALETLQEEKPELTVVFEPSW
Assay: Inhibition of NLRP3 in PMA-stimulated human THP-1 cells assessed as reduction in IL-1beta release pre-treated for 24 hrs followed by stimulation with LPS for 3 hrs and ATP for 1 hr by ELISA analysis
Type: cell-based
Settings: not given

Structure (SMILES) | pIC50
CS(=O)(=O)N1CCCc2ccc(N(S(=O)(=O)c3ccccc3[N+](=O)[O-])S(=O)(=O)c3ccccc3[N+](=O)[O-])cc21 | 4.86
